20 molecules from article PMC8457749, “Design, Synthesis, and Anticancer Activity Evaluation of Hybrids of Azoles and Barbituric Acids” (Iranian Journal of Pharmaceutical Research : IJPR, 2021) can be followed below.

In general, inhibition refers to the relative decrease from the control value, in per cent. The term IC50 denotes the concentration that gives 50% inhibition. The melting point is the temperature of the solid-liquid transition.

For data set [1], the system named is BEL-7402 cells. The data set is described as follows: MTT antiproliferative assay, BEL-7402. In kind it is cell-based, human. The conditions noted are these: Homo sapiens; for inhibition at 100 µM: read-out: Growth Inhibition at 100 μM (%) BEL-7402; for IC50: read-out: IC50 BEL-7402. As for the experimental part:
(§1) The antiproliferative activity of the target compounds against the panel of three different human cancer cell lines, liver (BEL-7402), colorectal (HCT-116), and breast (MCF-7) cell lines was evaluated using a standard MTT-based colorimetric assay. All cell lines were obtained from the Key Laboratory of Natural Resources and Functional Molecules of the Changbai Mountain (Yanbian University) and maintained in Dulbecco’s modified Eagle’s medium (DMEM) and RPMI Media 1640 (RPMI1640), supplemented with 10% foetal bovine serum (FBS) at 37 °C in a humidified atmosphere containing 5% CO2.
(§2) The cells were plated in 96-well plates at appropriate densities to ensure exponential growth throughout the experimental period (9 × 10^3 cells per well) and then allowed to adhere for 24 h. the cells were then treated for 48 h with each compound. After 48 h of incubation, 10 μL of MTT solution was added to each well to a final concentration of 2 mg/mL. the plates were then incubated for a further 4 h. After incubation, the MTT solution was removed and 150 μL of DMSO was added to each well for coloration. The plates were shaken vigorously for 10 min at room temperature to ensure complete solubilisation. The optometric density (OD) was read on a microplate reader (EL × 800, BioTek, Highland Park, Winooski, VT, USA) at 492 nm, and the data were subsequently analysed. The percentage of cell growth inhibition was calculated from the following Equation:
(§3) Inhibitory rate (%) = [1 − (ODtreated − ODblank)/(ODcontrol − ODblank)] × 100%
(§4) To obtain the antiproliferative activity of compounds 3a-3s and 4a-4d, the compounds were selected in the same way with four serial concentrations (1, 10, 50 and 100 μM) of those compounds. The optometric density (OD) reading was then used to calculate the IC50.

Data set [2] concerns HCT-116 cells. The data set is described as follows: MTT antiproliferative assay, HCT-116. In kind it is cell-based, human. The conditions noted are these: Homo sapiens; for inhibition at 100 µM: read-out: Growth Inhibition at 100 μM (%) HCT-116; for IC50: read-out: IC50 HCT-116. As for the experimental part:
as §1, §2, §3, §4

The test system of data set [3] is MCF-7 cells. The data set is described as follows: MTT antiproliferative assay, MCF-7. It counts as cell-based, human. The settings on record: Homo sapiens, MCF7, 48 h; for inhibition at 100 µM: read-out: Growth Inhibition at 100 μM (%) MCF-7; for IC50: read-out: IC50 MCF-7. As for the experimental part: as §1, §2, §3, §4
(In general: Tetrazolium dyes change colour on reduction, which living cells bring about.)

Read-outs that look alike come from different tables or passages of the source. A value given as a limit tells only on which side of the number the result lay.

Consider `O=C1NC(=O)C(=Cc2cn(Cc3ccccc3)c3ccccc23)C(=O)N1` [A, 5-((1-benzyl-1H-indol-3-yl)methylene)pyrimidine-2,4,6 (1H,3H,5H)-trione, reference compound], for which the inhibition at 100 µM in data set [1] (Bel-7402, 48 h) was determined as 19.6 ± 2.1%; in data set [2] (HCT-116, 48 h) it was 26.2 ± 1.8%; in data set [3] it was 11.8 ± 1%.
Consider `O=C1CC(=O)NC(=O)N1` [Barbituric acid], for which the inhibition at 100 µM in data set [1] (Bel-7402, 48 h) was 11.7 ± 1%; in data set [2] (HCT-116, 48 h) it was 14.3 ± 2.2%; in data set [3], less than 5%. Moreover, the IC50 in data set [1] (Bel-7402, 48 h) was greater than 100 µM; in data set [2] (HCT-116, 48 h) it was greater than 100 µM; in data set [3] it was greater than 100 µM.
In turn, `O=C1NC(=O)C(=Cc2cn(-c3ccccc3)nn2)C(=O)N1` [Compound 3a, 5((1-phenyl-1H-1,2,3-triazol-4-yl)methylene)pyrimidine-2,4,6(1H,3H,5H)-trione] gave a melting point of 250 °C. The inhibition at 100 µM in data set [1] (Bel-7402, 48 h) was 54 ± 3.4%. The inhibition at 100 µM in data set [2] (HCT-116, 48 h) came out at 42.7 ± 2.5%. In addition, the inhibition at 100 µM in data set [3] is 30.9 ± 2.6%.
As for `O=C1NC(=O)C(=Cc2cn(-c3ccccc3F)nn2)C(=O)N1` [Compound 3b, 5-((1-(2-fluorophenyl)-1H-1,2,3-triazol-4-yl)methylene)pyrimidine-2,4,6(1H,3H,5H)-trione], the melting point stood at 250 °C. Moreover, in data set [1] (Bel-7402, 48 h), the inhibition at 100 µM is 34.1 ± 4.3% and the IC50 was greater than 100 µM. In data set [2] (HCT-116, 48 h), the inhibition at 100 µM was 67.6 ± 3.8% and the IC50 came to 78.2 ± 2.34 µM. Besides, in data set [3], the inhibition at 100 µM was determined as 27.5 ± 1.6% and the IC50 was greater than 100 µM.
For `O=C1NC(=O)C(=Cc2cn(-c3ccc(F)cc3)nn2)C(=O)N1` [Compound 3d, 5-((1-(4-fluorophenyl)-1H-1,2,3-triazol-4-yl)methylene)pyrimidine-2,4,6(1H,3H,5H)-trione], the melting point came to 250 °C. Besides, in data set [1] (Bel-7402, 48 h), the inhibition at 100 µM is 31.9 ± 2.8%. In addition, the inhibition at 100 µM in data set [2] (HCT-116, 48 h) came to 31.6 ± 1.9%. Besides, the inhibition at 100 µM in data set [3] came to 34.1 ± 2.3%.
For `O=C1NC(=O)C(=Cc2cn(-c3ccccc3Cl)nn2)C(=O)N1` [Compound 3e, 5-((1-(2-chlorophenyl)-1H-1,2,3-triazol-4-yl)methylene)pyrimidine-2,4,6(1H,3H,5H)-trione], in that order: 250 °C, 39.6 ± 4.1%, 14.8 ± 0.9% and 19.8 ± 1.5%.
Molecule `O=C1NC(=O)C(=Cc2cn(-c3ccc(Cl)c(Cl)c3)nn2)C(=O)N1` [Compound 3i, 5-((1-(3,4-dichlorophenyl)-1H-1,2,3-triazol-4-yl)methylene)pyrimidine-2,4,6(1H,3H,5H)-trione] gave a melting point of 250 °C. In data set [1] (Bel-7402, 48 h), the inhibition at 100 µM came out at 47.2 ± 4.7% and the IC50 is greater than 100 µM. Moreover, in data set [2] (HCT-116, 48 h), the inhibition at 100 µM was 69.3 ± 2.9% and the IC50 amounted to 55.2 ± 2.31 µM. In data set [3], the inhibition at 100 µM worked out at 14.2 ± 1.5% and the IC50 is greater than 100 µM.
Molecule `O=C1NC(=O)C(=Cc2cn(-c3ccccc3Br)nn2)C(=O)N1` [Compound 3j, 5-((1-(2-bromophenyl)-1H-1,2,3-triazol-4-yl)methylene)pyrimidine-2,4,6(1H,3H,5H)-trione] came in with a melting point of 250 °C. Besides, the inhibition at 100 µM in data set [1] (Bel-7402, 48 h) was determined as 36.8 ± 2.1%. Further, the inhibition at 100 µM in data set [2] (HCT-116, 48 h) amounted to 46.3 ± 3.4%. In addition, the inhibition at 100 µM in data set [3] stood at 42.7 ± 2.6%.
`O=C1NC(=O)C(=Cc2cn(-c3ccc(Br)cc3)nn2)C(=O)N1` [Compound 3l, 5-((1-(4-bromophenyl)-1H-1,2,3-triazol-4-yl)methylene)pyrimidine-2,4,6(1H,3H,5H)-trione] displayed a melting point of 250 °C. The inhibition at 100 µM in data set [1] (Bel-7402, 48 h) worked out at 44.8 ± 3.8%. Further, in data set [2] (HCT-116, 48 h), the inhibition at 100 µM is 49.8 ± 3.8%. The inhibition at 100 µM in data set [3] is less than 5%.
For `COc1ccccc1-n1cc(C=C2C(=O)NC(=O)NC2=O)nn1` [Compound 3m, 5-((1-(2-methoxyphenyl)-1H-1,2,3-triazol-4-yl)methylene)pyrimidine-2,4,6(1H,3H,5H)-trione], in that order: 250 °C, 25.6 ± 2.1%, 44.2 ± 3.4% and 7.9 ± 1.1%.
Take `COc1cccc(-n2cc(C=C3C(=O)NC(=O)NC3=O)nn2)c1` [Compound 3n, 5-((1-(3-methoxyphenyl)-1H-1,2,3-triazol-4-yl)methylene)pyrimidine-2,4,6(1H,3H,5H)-trione]: the melting point came to 250 °C. Also, in data set [1] (Bel-7402, 48 h), the inhibition at 100 µM stood at 36.7 ± 19% and the IC50 was greater than 100 µM. In data set [2] (HCT-116, 48 h), the inhibition at 100 µM amounted to 67.1 ± 5.6% and the IC50 is 30.7 ± 2.1 µM. For the same molecule, in data set [3], the inhibition at 100 µM worked out at 23.3 ± 3.5% and the IC50 was greater than 100 µM.
Turning to `COc1ccc(-n2cc(C=C3C(=O)NC(=O)NC3=O)nn2)cc1` [Compound 3o, 5-((1-(4-methoxyphenyl)-1H-1,2,3-triazol-4-yl)methylene)pyrimidine-2,4,6(1H,3H,5H)-trione], the melting point turned out to be 250 °C. In data set [1] (Bel-7402, 48 h), the inhibition at 100 µM stood at 28.4 ± 3.1%. Moreover, the inhibition at 100 µM in data set [2] (HCT-116, 48 h) worked out at 7.9 ± 0.6%. In addition, the inhibition at 100 µM in data set [3] turned out to be 22.6 ± 2.7%.
The molecule `COc1ccc(-n2cc(C=C3C(=O)NC(=O)NC3=O)nn2)cc1OC` [Compound 3p, 5-((1-(3,4-dimethoxyphenyl)-1H-1,2,3-triazol-4-yl)methylene)pyrimidine-2,4,6(1H,3H,5H)-trione] had a melting point of 250 °C. Moreover, in data set [1] (Bel-7402, 48 h), the inhibition at 100 µM was 38 ± 1.9%. Further, the inhibition at 100 µM in data set [2] (HCT-116, 48 h) was 43.9 ± 2.9%. Further, the inhibition at 100 µM in data set [3] is 18.6 ± 1.7%.
On to `Cc1cccc(-n2cc(C=C3C(=O)NC(=O)NC3=O)nn2)c1` [Compound 3q, 5-((1-m-tolyl-1H-1,2,3-triazol-4-yl)methylene)pyrimidine-2,4,6(1H,3H,5H)-trione], for which the melting point was found to be 250 °C. For the same molecule, in data set [1] (Bel-7402, 48 h), the inhibition at 100 µM turned out to be 23.7 ± 2.1% and the IC50 is greater than 100 µM. Also, in data set [2] (HCT-116, 48 h), the inhibition at 100 µM stood at 94.8 ± 6.3% and the IC50 was 32.8 ± 1.9 µM. Also, in data set [3], the inhibition at 100 µM was 91.9 ± 2.4% and the IC50 turned out to be 29.8 ± 2.01 µM.
For `Cc1ccc(-n2cc(C=C3C(=O)NC(=O)NC3=O)nn2)cc1` [Compound 3r, 5-((1-p-tolyl-1H-1,2,3-triazol-4-yl)methylene)pyrimidine-2,4,6(1H,3H,5H)-trione], the melting point was 250 °C. Besides, the inhibition at 100 µM in data set [1] (Bel-7402, 48 h) was 39.8 ± 3.1%. In addition, the inhibition at 100 µM in data set [2] (HCT-116, 48 h) was 52.5 ± 2%. Besides, the inhibition at 100 µM in data set [3] was less than 5%.
Molecule `Cc1nn(-c2ccccc2)c(C)c1C=C1C(=O)NC(=O)NC1=O` [Compound 4a, 5-((3,5-dimethyl-1-phenyl-1H-pyrazol-4-yl)methylene)pyrimidine-2,4,6(1H,3H,5H)-trione] yielded a melting point of 250 °C. Moreover, the inhibition at 100 µM in data set [1] (Bel-7402, 48 h) is 38.7 ± 1%. Moreover, the inhibition at 100 µM in data set [2] (HCT-116, 48 h) stood at 30.9 ± 3.1%. For the same molecule, the inhibition at 100 µM in data set [3] is less than 5%.
For `Cc1nn(-c2cccc(F)c2)c(C)c1C=C1C(=O)NC(=O)NC1=O` [Compound 4b, 5-((1-(3-fluorophenyl)-3,5-dimethyl-1H-pyrazol-4-yl)methylene)pyrimidine-2,4,6(1H,3H,5H)-trione] the same measures were 250 °C, 14.7 ± 1.2%, 9.1 ± 1.2% and less than 5%.
Take `Cc1nn(-c2cccc(Cl)c2)c(C)c1C=C1C(=O)NC(=O)NC1=O` [Compound 4c, 5-((1-(3-chlorophenyl)-3,5-dimethyl-1H-pyrazol-4-yl)methylene)pyrimidine-2,4,6(1H,3H,5H)-trione]: the melting point came to 250 °C. Moreover, in data set [1] (Bel-7402, 48 h), the inhibition at 100 µM was found to be 64 ± 2.1% and the IC50 was found to be 48.2 ± 0.78 µM. In data set [2] (HCT-116, 48 h), the inhibition at 100 µM amounted to 58.7 ± 5.2% and the IC50 is 47.5 ± 3.21 µM. Moreover, in data set [3], the inhibition at 100 µM worked out at 15.5 ± 1.1% and the IC50 is greater than 100 µM.
The molecule `Cc1ccc(-n2nc(C)c(C=C3C(=O)NC(=O)NC3=O)c2C)cc1` [Compound 4d, 5-((3,5-dimethyl-1-p-tolyl-1H-pyrazol-4-yl)methylene)pyrimidine-2,4,6(1H,3H,5H)-trione] registered a melting point of 250 °C. Moreover, in data set [1] (Bel-7402, 48 h), the inhibition at 100 µM came to 38.1 ± 1.3%. The inhibition at 100 µM in data set [2] (HCT-116, 48 h) worked out at 28.4 ± 3%. In addition, in data set [3], the inhibition at 100 µM was less than 5%.
As to `O=c1[nH]cc(F)c(=O)[nH]1` [Compound 5-FU, 5-fluorouracil, reference compound], the 50% inhibitory concentration (IC50) in data set [1] (Bel-7402, 48 h, MTT) is 21.3 ± 0.56 µM; in data set [2] (HCT-116, 48 h, MTT) it was 24.8 ± 0.78 µM.
